Experimental data as given in publication PMC3706558 (Biochemistry, 2013).

Legend:
Mtb ICDH-1 [1] = biological target: T1, Mtb ICDH-1 (Mycobacterium tuberculosis, UniProt P9WKL1); experiment: biochemical
Mtb ICDH-1 [2] = biological target: T1, Mtb ICDH-1; experiment: NADPH formation at […] nm, dead-end inhibition; format: biochemical
[3] = test system: NC(=O)c1ccc[n+]([C@@H]2O[C@H](COP(=O)(O)OP(=O)(O)OC[C@H]3O[C@@H](n4cnc5c(N)ncnc54)[C@H](OP(=O)(O)O)[C@@H]3O)[C@@H](O)[C@H]2O)c1; experiment: purified protein; conditions: pH 7.5

T1 sequence (P9WKL1 whole entry): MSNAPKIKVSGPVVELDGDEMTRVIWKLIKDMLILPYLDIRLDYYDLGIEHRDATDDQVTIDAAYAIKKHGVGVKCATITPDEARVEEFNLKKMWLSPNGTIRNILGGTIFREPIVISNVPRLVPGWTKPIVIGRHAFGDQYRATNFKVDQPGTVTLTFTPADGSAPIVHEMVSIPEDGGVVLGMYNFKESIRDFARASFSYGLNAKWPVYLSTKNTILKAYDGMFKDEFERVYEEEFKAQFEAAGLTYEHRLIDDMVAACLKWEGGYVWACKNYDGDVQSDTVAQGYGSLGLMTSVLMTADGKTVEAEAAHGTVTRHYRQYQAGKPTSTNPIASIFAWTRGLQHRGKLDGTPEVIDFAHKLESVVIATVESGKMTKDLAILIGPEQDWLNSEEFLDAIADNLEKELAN

Molecule	Ki (Mtb ICDH-1 [1])	also measured
NC(=O)C1=CN([C@@H]2O[C@H](COP(=O)(O)OP(=O)(O)OC[C@H]3O[C@@H](n4cnc5c(N)ncnc54)[C@H](OP(=O)(O)O)[C@@H]3O)[C@@H](O)[C@H]2O)C=CC1 [NADPH]	0.006 ± 0.002 mM	
O=C(O)C[C@H](O)C(=O)O [malate]		Ki (Mtb ICDH-1 [2]): 80 ± 15 mM
O=C(O)CCC(=O)C(=O)O [αKG]	22 ± 6 mM	
Mtb ICDH-1 (Mycobacterium tuberculosis H37Rv)		Km [3]: 15 ± 3 µM
